The values that follow come from patent publication US20260053834A1, “COVALENT MODIFIERS OF AKT1 AND USES THEREOF” (Terremoto Biosciences, Inc., priority 2023, published 2026).

Experiment [1] has as its system LAPC4 prostate cancer cells, which express the AKT1 E17K allele. The experiment can be described thus: Antiproliferative effects in LAPC4 cells (CellTiter Glo, 72 h). Conditions: Homo sapiens, LAPC4, 72 h, read-out: LAPC4 proliferation IC50: GeoMean IC50. It is filed as cell-based. Summed up: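 IC50 values come from Hill-equation fitting of luminescence (cellular ATP) after 72 h compound exposure. Treated wells held 1,000 cells each, with compound delivered as DMSO dilutions. Culture medium was IMDM plus 12% FBS.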
A general note: Cellular ATP, detected with luciferase, serves as a proxy for viable cell number.

The next experiment has as its target T1, AKT1 E17K (Homo sapiens, UniProt P31749, E17K).
T1 construct: expressed in transfected cells; host or cells: HEK293
Nature of the experiment: Live cell target engagement by NanoBRET competitive probe displacement, AKT1 E17K. It is filed as binding. Conditions: transfected HEK293 cells, 2 h at 37° C., read-out: AKT1 E17K IC50: GeoMean IC50. Background: Bioluminescence resonance energy transfer reports proximity on the nanometre scale.

A further experiment addresses T2, AKT1 WT (Homo sapiens, UniProt P31749).
T2 construct: expressed in transfected cells; host or cells: HEK293
Nature of the experiment: Live cell target engagement by NanoBRET competitive probe displacement, AKT1 WT. Conditions: transfected HEK293 cells, 2 h at 37° C., read-out: AKT1 WT IC50: GeoMean IC50. The experiment is classed as binding.

The target in a further experiment is T3, AKT2 (Homo sapiens, UniProt P31751).
T3 construct: expressed in transfected cells; host or cells: HEK293
Nature of the experiment: Live cell target engagement by NanoBRET competitive probe displacement, AKT2. The experiment is classed as binding. Conditions: transfected HEK293 cells, 2 h at 37° C., read-out: AKT2 IC50: GeoMean IC50.

T2 sequence (P31749 whole entry): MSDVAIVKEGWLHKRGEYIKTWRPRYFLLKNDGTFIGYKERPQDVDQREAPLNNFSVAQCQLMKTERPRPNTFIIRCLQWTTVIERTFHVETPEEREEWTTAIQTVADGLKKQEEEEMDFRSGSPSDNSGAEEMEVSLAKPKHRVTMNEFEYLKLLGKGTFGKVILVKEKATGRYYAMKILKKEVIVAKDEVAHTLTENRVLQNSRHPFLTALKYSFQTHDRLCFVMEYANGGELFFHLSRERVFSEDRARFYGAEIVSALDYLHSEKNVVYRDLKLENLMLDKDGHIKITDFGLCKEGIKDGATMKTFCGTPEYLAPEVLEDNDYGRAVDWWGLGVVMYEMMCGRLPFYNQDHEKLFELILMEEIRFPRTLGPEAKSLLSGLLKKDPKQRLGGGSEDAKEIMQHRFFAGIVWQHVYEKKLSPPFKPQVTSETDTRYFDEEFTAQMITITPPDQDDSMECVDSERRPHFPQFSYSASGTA
T3 sequence (P31751 whole entry): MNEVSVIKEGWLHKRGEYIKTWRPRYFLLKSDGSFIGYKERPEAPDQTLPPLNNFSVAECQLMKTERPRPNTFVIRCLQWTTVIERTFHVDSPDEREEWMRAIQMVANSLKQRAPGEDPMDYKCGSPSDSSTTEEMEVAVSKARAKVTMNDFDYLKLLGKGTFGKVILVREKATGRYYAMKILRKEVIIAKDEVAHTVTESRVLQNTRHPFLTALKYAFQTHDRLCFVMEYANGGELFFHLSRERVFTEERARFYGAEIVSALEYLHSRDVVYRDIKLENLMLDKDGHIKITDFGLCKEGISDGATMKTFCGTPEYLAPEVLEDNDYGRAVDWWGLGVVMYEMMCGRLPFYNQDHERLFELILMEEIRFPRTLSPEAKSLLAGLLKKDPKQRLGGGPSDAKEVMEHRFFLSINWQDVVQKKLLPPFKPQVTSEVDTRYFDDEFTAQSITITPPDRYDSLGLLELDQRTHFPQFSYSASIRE
T1 sequence (P31749 whole entry E17K): as the sequence (P31749 whole entry) above, with E17K counted along it

In the case of `Nc1ncccc1-c1nc2ccc(-n3cc(C(F)F)cn3)nc2n1-c1ccc2c(c1)CC[C@@H]2NC(=O)c1ccc(O)c(C=O)c1` [Example 94, N-[(1S)-5-[2-(2-aminopyridin-3-yl)-5-[4-(difluoromethyl)pyrazol-1-yl]imidazo[4,5-b]pyridin-3-yl]-2,3-dihydro-1H-inden-1-yl]-3-formyl-4-hydroxybenzamide], the IC50 in experiment [1] lay in the range of 100 to 2000 nM; on AKT1 E17K, 10 to 100 nM; at AKT1 WT it was 100 to 2000 nM; at AKT2, 100 to 2000 nM.
Take `Cc1ccn(-c2ccc3nc(-c4cccnc4N)n(-c4ccc5c(c4)CC[C@@H]5NC(=O)c4ccc(O)c(C=O)c4)c3n2)n1` [Example 95, N-[(1S)-5-[2-(2-aminopyridin-3-yl)-5-(3-methylpyrazol-1-yl)imidazo[4,5-b]pyridin-3-yl]-2,3-dihydro-1H-inden-1-yl]-3-formyl-4-hydroxybenzamide]: the IC50 in experiment [1] fell in the range of 10 to 100 nM; at AKT1 E17K, 10 to 100 nM; at AKT1 WT, 10 to 100 nM; at AKT2 it was 100 to 2000 nM.
On to `Nc1ncccc1-c1nc2ccc(-n3ccc(Cl)n3)nc2n1-c1ccc2c(c1)CC[C@@H]2NC(=O)c1ccc(O)c(C=O)c1` [Example 96, (S)—N-(5-(2-(2-aminopyridin-3-yl)-5-(3-chloro-1H-pyrazol-1-yl)-3H-imidazo[4,5-b]pyridin-3-yl)-2,3-dihydro-1H-inden-1-yl)-3-formyl-4-hydroxybenzamide], for which the IC50 in experiment [1] fell in the range of 100 to 2000 nM; on AKT1 E17K it was 10 to 100 nM; at AKT1 WT it was 100 to 2000 nM; at AKT2, 100 to 2000 nM.
Take `Nc1ncccc1-c1nc2ccc(-n3cncn3)nc2n1-c1ccc2c(c1)CC[C@@H]2NC(=O)c1ccc(O)c(C=O)c1` [Example 97, N-[(1S)-5-[2-(2-aminopyridin-3-yl)-5-(1,2,4-triazol-1-yl)imidazo[4,5-b]pyridin-3-yl]-2,3-dihydro-1H-inden-1-yl]-3-formyl-4-hydroxybenzamide]: the IC50 in experiment [1] fell in the range of 100 to 2000 nM; on AKT1 E17K, 10 to 100 nM; at AKT1 WT it was 100 to 2000 nM; on AKT2, 100 to 2000 nM.
With `Nc1ncccc1-c1nc2ccc(-n3cccn3)nc2n1-c1ccc2c(c1)CC[C@@H]2NC(=O)c1cc(C=O)c(O)c(C(F)(F)F)c1` [Example 100, N-[(1S)-5-[2-(2-aminopyridin-3-yl)-5-(pyrazol-1-yl)imidazo[4,5-b]pyridin-3-yl]-2,3-dihydro-1H-inden-1-yl]-3-formyl-4-hydroxy-5-(trifluoromethyl)benzamide], the IC50 in experiment [1] was 100 to 2000 nM; at AKT1 E17K it was 10 to 100 nM; on AKT1 WT, 100 to 2000 nM; at AKT2 it was 100 to 2000 nM.
As to `C#Cc1cc(C(=O)N[C@H]2CCc3cc(-n4c(-c5cccnc5N)nc5ccc(-n6cccn6)nc54)ccc32)cc(C=O)c1O` [Example 101, N-[(1S)-5-[2-(2-aminopyridin-3-yl)-5-(pyrazol-1-yl)imidazo[4,5-b]pyridin-3-yl]-2,3-dihydro-1H-inden-1-yl]-3-ethynyl-5-formyl-4-hydroxybenzamide], the IC50 was in the range of 100 to 2000 nM in experiment [1], 10 to 100 nM on AKT1 E17K, 10 to 100 nM at AKT1 WT and 100 to 2000 nM on AKT2.
For the compound `CC(=O)c1cc(C(=O)N[C@H]2CCc3cc(-n4c(-c5cccnc5N)nc5ccc(-n6cccn6)nc54)ccc32)cc(C=O)c1O` [Example 102, (S)-3-acetyl-N-(5-(2-(2-aminopyridin-3-yl)-5-(1H-pyrazol-1-yl)-3H-imidazo[4,5-b]pyridin-3-yl)-2,3-dihydro-1H-inden-1-yl)-5-formyl-4-hydroxybenzamide], the IC50 in experiment [1] lay in the range of 100 to 2000 nM; at AKT1 E17K, 10 to 100 nM; on AKT1 WT, 10 to 100 nM; on AKT2 it was 10 to 100 nM.
Consider `Nc1ncccc1-c1nc2ccc(-c3cnccn3)nc2n1-c1ccc2c(c1)CC[C@@H]2NC(=O)c1cc(C=O)c(O)c(F)c1F` [Example 103, N-[(1S)-5-[2-(2-aminopyridin-3-yl)-5-(pyrazin-2-yl)imidazo[4,5-b]pyridin-3-yl]-2,3-dihydro-1H-inden-1-yl]-2,3-difluoro-5-formyl-4-hydroxybenzamide], for which the IC50 in experiment [1] is 10 to 100 nM; at AKT1 E17K, 10 to 100 nM; on AKT1 WT, 10 to 100 nM; on AKT2, 100 to 2000 nM.
Regarding `CN(C)C(=O)Nc1ccc(C(=O)N[C@H]2CCc3cc(-n4c(-c5cccnc5N)nc5ccc(-n6cccn6)nc54)ccc32)cc1C=O` [Example 104, N-[(1S)-5-[2-(2-aminopyridin-3-yl)-5-(pyrazol-1-yl)imidazo[4,5-b]pyridin-3-yl]-2,3-dihydro-1H-inden-1-yl]-4-[(dimethylcarbamoyl)amino]-3-formylbenzamide], the IC50 in experiment [1] is less than 10 nM; at AKT1 E17K, less than 10 nM; at AKT1 WT, 10 to 100 nM; at AKT2, 100 to 2000 nM.
In the case of `Nc1ncccc1-c1nc2ccc(-n3cccn3)nc2n1-c1ccc2c(c1)CC[C@@H]2NC(=O)c1cc(C=O)c(O)cc1F` [Example 105, (S)—N-(5-(2-(2-aminopyridin-3-yl)-5-(1H-pyrazol-1-yl)-3H-imidazo[4,5-b]pyridin-3-yl)-2,3-dihydro-1H-inden-1-yl)-2-fluoro-5-formyl-4-hydroxybenzamide], the IC50 in experiment [1] lay in the range of 10 to 100 nM; on AKT1 E17K, 10 to 100 nM; on AKT1 WT, 10 to 100 nM; on AKT2, 100 to 2000 nM.
For `COc1ccn(-c2ccc3nc(-c4cccnc4N)n(-c4ccc5c(c4)CC[C@@H]5NC(=O)c4ccc(O)c(C=O)c4)c3n2)n1` [Example 106, N-[(1S)-5-[2-(2-aminopyridin-3-yl)-5-(3-methoxypyrazol-1-yl)imidazo[4,5-b]pyridin-3-yl]-2,3-dihydro-1H-inden-1-yl]-3-formyl-4-hydroxybenzamide], the IC50 lay in the range of 10 to 100 nM in experiment [1], 10 to 100 nM on AKT1 E17K, 10 to 100 nM on AKT1 WT and 100 to 2000 nM on AKT2.
Take `N#Cc1ccn(-c2ccc3nc(-c4cccnc4N)n(-c4ccc5c(c4)CC[C@@H]5NC(=O)c4ccc(O)c(C=O)c4)c3n2)n1` [Example 108, N-[(1S)-5-[2-(2-aminopyridin-3-yl)-5-(3-cyanopyrazol-1-yl)imidazo[4,5-b]pyridin-3-yl]-2,3-dihydro-1H-inden-1-yl]-3-formyl-4-hydroxybenzamide]: the IC50 in experiment [1] was 100 to 2000 nM; on AKT1 E17K it was 10 to 100 nM; on AKT1 WT it was 100 to 2000 nM; on AKT2, no less than 2000 nM.
In the case of `Nc1ncccc1-c1nc2ccc(-c3nccnc3F)nc2n1-c1ccc2c(c1)CC[C@@H]2NC(=O)c1ccc(O)c(C=O)c1` [Example 109, N-[(1S)-5-[2-(2-aminopyridin-3-yl)-5-(3-fluoropyrazin-2-yl)imidazo[4,5-b]pyridin-3-yl]-2,3-dihydro-1H-inden-1-yl]-3-formyl-4-hydroxybenzamide], the IC50 in experiment [1] fell in the range of 100 to 2000 nM; at AKT1 E17K, 10 to 100 nM; at AKT1 WT, 100 to 2000 nM; at AKT2 it was 100 to 2000 nM.
As for `Nc1ncccc1-c1nc2ccc(-n3cccn3)nc2n1-c1ccc2c(c1)CC[C@@H]2NC(=O)c1cc(C=O)c(O)c(F)c1Cl` [Example 110, N-[(1S)-5-[2-(2-aminopyridin-3-yl)-5-(pyrazol-1-yl)imidazo[4,5-b]pyridin-3-yl]-2,3-dihydro-1H-inden-1-yl]-2-chloro-3-fluoro-5-formyl-4-hydroxybenzamide], the IC50 in experiment [1] is 100 to 2000 nM; on AKT1 E17K, 10 to 100 nM; at AKT1 WT, 10 to 100 nM; on AKT2, 100 to 2000 nM.
On to `CS(=O)(=O)Nc1ncc(C(=O)N[C@H]2CCc3cc(-n4c(-c5cccnc5N)nc5ccc(-n6cccn6)nc54)ccc32)cc1C=O` [Example 111, N-[(1S)-5-[2-(2-aminopyridin-3-yl)-5-(pyrazol-1-yl)imidazo[4,5-b]pyridin-3-yl]-2,3-dihydro-1H-inden-1-yl]-5-formyl-6-methanesulfonamidopyridine-3-carboxamide], for which the IC50 in experiment [1] is no less than 2000 nM; at AKT1 E17K, 100 to 2000 nM; on AKT1 WT, 100 to 2000 nM; on AKT2, no less than 2000 nM.
For `C#Cc1c(C(=O)N[C@H]2CCc3cc(-n4c(-c5cccnc5N)nc5ccc(-n6cccn6)nc54)ccc32)ccc(O)c1C=O` [Example 112, N-[(1S)-5-[2-(2-aminopyridin-3-yl)-5-(pyrazol-1-yl)imidazo[4,5-b]pyridin-3-yl]-2,3-dihydro-1H-inden-1-yl]-2-ethynyl-3-formyl-4-hydroxybenzamide], the IC50 in experiment [1] was no less than 2000 nM; at AKT1 E17K, 10 to 100 nM; at AKT1 WT, 10 to 100 nM; at AKT2, 100 to 2000 nM.
Take `Nc1ncccc1-c1nc2ccc(-c3ccn(C(F)F)n3)nc2n1-c1ccc2c(c1)CC[C@@H]2NC(=O)c1ccc(O)c(C=O)c1` [Example 113, N-[(1S)-5-[2-(2-aminopyridin-3-yl)-5-[1-(difluoromethyl)pyrazol3-yl]imidazo [4,5-b]pyridin-3-yl]-2,3-dihydro-1H-inden-1-yl]-3-formyl-4-hydroxybenzamide]: the IC50 in experiment [1] was 10 to 100 nM; at AKT1 E17K it was less than 10 nM; on AKT1 WT, 10 to 100 nM; at AKT2, 100 to 2000 nM.
`CN(C)c1ccn(-c2ccc3nc(-c4cccnc4N)n(-c4ccc5c(c4)CC[C@@H]5NC(=O)c4ccc(O)c(C=O)c4)c3n2)n1` [Example 114, (S)—N-(5-(2-(2-aminopyridin-3-yl)-5-(3-(dimethylamino)-1H-pyrazol-1-yl)-3H-imidazo[4,5-b]pyridin-3-yl)-2,3-dihydro-1H-inden-1-yl)-3-formyl-4-hydroxybenzamide]: the IC50 lay within 10 to 100 nM in experiment [1], 10 to 100 nM at AKT1 E17K, 10 to 100 nM on AKT1 WT and 100 to 2000 nM on AKT2.
